Experimental data from PMC6120666 (The EMBO Journal, 2018).

Tests used:
[1] = target: T1, cIAP1 BIR2 - RIPK2 interaction (Homo sapiens, UniProt O43353); assay: GST-BIR2-cIAP1 pulldown of RIPK2; format: binding; conditions: U2OS/NOD2 lysates; CSLP37 1.8 μM, CSLP43 2 μM
T1 construct: Pulldown of RIPK2 from U2OS/NOD2 cell lysates with recombinant; endogenous in cells; host or cells: U2OS/NOD2 cell lysate (RIPK2); E. coli BL21 (GST-BIR2-cIAP1)
Method: Figure EV4 Inhibition of RIPK2 ubiquitination and cIAP1 binding by CSLP inhibitors • A Coomassie Blue staining of His Trap and gel filtration purified His6‐GST‐XIAP‐BIR2 WT and D214S recombinant proteins at two different concentrations as indicated. • B Pulldown of RIPK2 from U2OS/NOD2 cell lysates with recombinant GST‐BIR2‐cIAP1 in the presence of CSLP inhibitors. […] Purified material and lysates were analyzed by immunoblotting. • C, D Purification of Ub‐conjugates from U2OS/NOD2 cells (C) or THP‐1 cells (D) after treatment with L18‐MDP (200 ng/ml, 1 h) and CSLP compounds as indicated. Purified material and lysates were analyzed by immunoblotting. […]
For co‐immunoprecipitation of HA‐XIAP with RIPK2, transfected and treated cells were lysed in TBS buffer containing 0.5% NP‐40, cOmplete and PhosSTOP inhibitors (Roche) and the lysate was cleared by centrifugation. The lysates were incubated with anti‐HA‐agarose overnight, washed 3× with lysis buffer, and analyzed by immunoblotting. […] Bound material was washed 3× with lysis buffer or PBS, eluted with 15 mM Glutathione in PBS, and analyzed by immunoblotting. […] The bound material was eluted and analyzed as described above. Ubiquitin conjugates were purified from treated cells using GST‐1xUBA^ubq ubiquitin affinity reagent (termed TUBE pulldown) and analyzed by immunoblotting as described (Fiil et al, 2013). […]

[2] = target: T2, recombinant RIPK3 (Homo sapiens, UniProt Q9Y572); assay: RIPK3 ADPGlo kinase assay; format: biochemical; conditions: concentrations up to 1 µM
T2 construct: made in house
Method: Cell viability was determined using CellTiter‐Glo assay (Promega). […] Kinase activities were determined using ADPGlo assay (Promega). • Structure of the active conformation of RIPK2 kinase domain in complex with AMP‐PNP (PDB ID: 5AR3). Figure depicts locations of the adenine and deep pockets. […] Key residues discussed in the text are shown as sticks (Lys/Glu Glu‐in bond—bottom left, catalytic Asp residues (Asp146/Asp164)—bottom right, R‐spine—right). P‐loop of CSLP18 structure is shown in yellow. Structured segment of activation segment (AS) observed in active conformation structures is shown in red. • Structure of RIPK2 kinase domain (gray ribbons) in complex with CSLP18 (orange) (PDB ID 6FU5). Sticks are shown for residues in the vicinity of the cavity surrounding the key inhibitor position R1. A 2Fo‐Fc electron density map contoured at 1 sigma is shown for the inhibitor and the residues lining the key region around inhibitor R^1 position. • Molecular docking model of RIPK2 kinase domain in complex with CSLP37 (yellow) based on RIPK2/CSLP18 structure (Fig 3D). […] Data information: Data in (A–C, G) represent the mean ± SEM of three independent experiments. **P < 0.01. Two‐way ANOVA was used to determine statistical significance. […]

T1 sequence (O43353 whole entry): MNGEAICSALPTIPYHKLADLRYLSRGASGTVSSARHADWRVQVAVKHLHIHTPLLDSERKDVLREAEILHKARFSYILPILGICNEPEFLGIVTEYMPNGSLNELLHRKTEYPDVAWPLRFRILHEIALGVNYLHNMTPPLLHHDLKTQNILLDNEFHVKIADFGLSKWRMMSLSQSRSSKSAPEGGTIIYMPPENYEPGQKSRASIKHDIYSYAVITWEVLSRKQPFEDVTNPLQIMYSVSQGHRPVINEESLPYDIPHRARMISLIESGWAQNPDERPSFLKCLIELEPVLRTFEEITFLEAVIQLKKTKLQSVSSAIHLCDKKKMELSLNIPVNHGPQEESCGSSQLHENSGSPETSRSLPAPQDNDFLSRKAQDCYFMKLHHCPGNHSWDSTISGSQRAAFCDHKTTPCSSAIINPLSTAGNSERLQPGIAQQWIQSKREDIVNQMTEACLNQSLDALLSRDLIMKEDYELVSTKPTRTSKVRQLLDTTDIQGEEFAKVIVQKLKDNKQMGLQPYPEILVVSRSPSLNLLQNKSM
T2 sequence (Q9Y572 whole entry, species assumed): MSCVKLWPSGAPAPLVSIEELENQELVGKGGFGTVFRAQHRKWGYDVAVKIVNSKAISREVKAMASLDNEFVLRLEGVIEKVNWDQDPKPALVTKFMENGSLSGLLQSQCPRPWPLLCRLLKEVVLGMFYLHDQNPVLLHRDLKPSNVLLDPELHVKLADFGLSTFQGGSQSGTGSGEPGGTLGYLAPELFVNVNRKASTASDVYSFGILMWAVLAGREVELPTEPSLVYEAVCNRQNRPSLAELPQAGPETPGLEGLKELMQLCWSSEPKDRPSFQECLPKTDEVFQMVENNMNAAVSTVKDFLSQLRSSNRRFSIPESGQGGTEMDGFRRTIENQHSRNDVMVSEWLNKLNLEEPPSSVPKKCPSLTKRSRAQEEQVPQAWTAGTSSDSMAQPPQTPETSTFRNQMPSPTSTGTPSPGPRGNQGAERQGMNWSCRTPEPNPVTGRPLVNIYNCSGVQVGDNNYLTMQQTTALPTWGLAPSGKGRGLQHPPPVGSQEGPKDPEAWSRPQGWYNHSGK

SMILES | interaction between GST-BIR2-cIAP1 and RIPK2 in cell lysates [1] | inhibitory activity against RIPK3 [2]
CCCS(=O)(=O)Nc1cc(-c2cc(-c3ccc(N4CCNCC4)cc3)cnc2N)cc(F)c1OC [CSLP37] | both antagonized | no inhibitory activity
CCCS(=O)(=O)Nc1cc(-c2cc(-c3ccc(N4CCNCC4)cc3)cnc2N)cc(OC)c1OC [CSLP43] | both antagonized | no inhibitory activity
